From ChEMBL document CHEMBL3865816, “Design, synthesis and biological evaluation of novel azaspiro analogs of linezolid as antibacterial and antitubercular agents” (Eur J Med Chem, 2016)
≈ marks a conversion by molar mass, not a printed value.

Assays:
Assay type in all cases: functional
Pseudomonas aeruginosa [1] = assay: Antibacterial activity against Pseudomonas aeruginosa NCIM 2036 measured after 8 hrs by spectrophotometric method; settings: NCIM 2036, 8 h
Staphylococcus aureus [2] = assay: Antibacterial activity against Staphylococcus aureus NCIM 2079 measured after 12 hrs by spectrophotometric method; settings: NCIM 2079, 12 h
Escherichia coli [3] = assay: Antibacterial activity against Escherichia coli NCIM 2688 measured after 8 hrs by spectrophotometric method; settings: NCIM 2688, 8 h
Bacillus subtilis [4] = assay: Antibacterial activity against Bacillus subtilis NCIM 2010 measured after 12 hrs by spectrophotometric method; settings: NCIM 2010, 12 h
[5] = system: Mycobacterium tuberculosis; assay: Antitubercular activity against dormant stage Mycobacterium tuberculosis H37Ra measured after 12 days by XTT assay; settings: 288 h
Escherichia coli [6] = assay: Antibacterial activity against Escherichia coli NCIM 2688 at 30 ug/ml measured after 8 hrs by spectrophotometric method; settings: NCIM 2688, 8 h
Escherichia coli [7] = assay: Antibacterial activity against Escherichia coli NCIM 2688 at 10 ug/ml measured after 8 hrs by spectrophotometric method; settings: NCIM 2688, 8 h
Escherichia coli [8] = assay: Antibacterial activity against Escherichia coli NCIM 2688 at 3 ug/ml measured after 8 hrs by spectrophotometric method; settings: NCIM 2688, 8 h
Pseudomonas aeruginosa [9] = assay: Antibacterial activity against Pseudomonas aeruginosa NCIM 2036 at 30 ug/ml measured after 8 hrs by spectrophotometric method; settings: NCIM 2036, 8 h
Pseudomonas aeruginosa [10] = assay: Antibacterial activity against Pseudomonas aeruginosa NCIM 2036 at 10 ug/ml measured after 8 hrs by spectrophotometric method; settings: NCIM 2036, 8 h
Pseudomonas aeruginosa [11] = assay: Antibacterial activity against Pseudomonas aeruginosa NCIM 2036 at 3 ug/ml measured after 8 hrs by spectrophotometric method; settings: NCIM 2036, 8 h
Staphylococcus aureus [12] = assay: Antibacterial activity against Staphylococcus aureus NCIM 2079 at 30 ug/ml measured after 12 hrs by spectrophotometric method; settings: NCIM 2079, 12 h
Staphylococcus aureus [13] = assay: Antibacterial activity against Staphylococcus aureus NCIM 2079 at 10 ug/ml measured after 12 hrs by spectrophotometric method; settings: NCIM 2079, 12 h
Staphylococcus aureus [14] = assay: Antibacterial activity against Staphylococcus aureus NCIM 2079 at 3 ug/ml measured after 12 hrs by spectrophotometric method; settings: NCIM 2079, 12 h
Bacillus subtilis [15] = assay: Antibacterial activity against Bacillus subtilis NCIM 2010 at 30 ug/ml measured after 12 hrs by spectrophotometric method; settings: NCIM 2010, 12 h
Bacillus subtilis [16] = assay: Antibacterial activity against Bacillus subtilis NCIM 2010 at 10 ug/ml measured after 12 hrs by spectrophotometric method; settings: NCIM 2010, 12 h
Bacillus subtilis [17] = assay: Antibacterial activity against Bacillus subtilis NCIM 2010 at 3 ug/ml measured after 12 hrs by spectrophotometric method; settings: NCIM 2010, 12 h
[18] = system: Mycobacterium tuberculosis; assay: Antitubercular activity against dormant stage Mycobacterium tuberculosis H37Ra at 30 ug/ml measured after 12 days by XTT assay; settings: 288 h
[19] = system: Mycobacterium tuberculosis; assay: Antitubercular activity against dormant stage Mycobacterium tuberculosis H37Ra at 10 ug/ml measured after 12 days by XTT assay; settings: 288 h
[20] = system: Mycobacterium tuberculosis; assay: Antitubercular activity against dormant stage Mycobacterium tuberculosis H37Ra at 3 ug/ml measured after 12 days by XTT assay; settings: 288 h
[21] = system: Mycobacterium tuberculosis; assay: Antitubercular activity against active stage Mycobacterium tuberculosis H37Ra measured after 8 days by XTT assay; settings: 192 h

Compound | IC50 (Pseudomonas aeruginosa [1]) [µg/mL] | MIC (Pseudomonas aeruginosa [1]) [µg/mL] | IC50 (Staphylococcus aureus [2]) [µg/mL] | MIC (Staphylococcus aureus [2]) [µg/mL] | IC50 (Escherichia coli [3]) [µg/mL] | MIC (Escherichia coli [3]) [µg/mL] | IC50 (Bacillus subtilis [4]) [µg/mL] | MIC (Bacillus subtilis [4]) [µg/mL] | IC50 [5] [µg/mL] | MIC [5] [µg/mL] | inhibition at 30 µg/mL (Escherichia coli [6]) [%] | inhibition at 10 µg/mL (Escherichia coli [7]) [%] | inhibition at 3 µg/mL (Escherichia coli [8]) [%] | inhibition at 30 µg/mL (Pseudomonas aeruginosa [9]) [%] | inhibition at 10 µg/mL (Pseudomonas aeruginosa [10]) [%] | inhibition at 3 µg/mL (Pseudomonas aeruginosa [11]) [%] | inhibition at 30 µg/mL (Staphylococcus aureus [12]) [%] | inhibition at 10 µg/mL (Staphylococcus aureus [13]) [%] | inhibition at 3 µg/mL (Staphylococcus aureus [14]) [%] | inhibition at 30 µg/mL (Bacillus subtilis [15]) [%] | also measured
O=C1O[C@@H](CNC(=S)Nc2ccc(Cl)cc2)CN1c1ccc(N2CC3(COC3)C2)c(F)c1 | > 100 | > 100 | > 100 | > 100 | > 100 | > 100 | > 100 | > 100 | > 100 | > 100 | 69.9 | 42.5 | 47.7 | 71.2 | 49.4 | 34 | 47.5 | 37.9 | 18.8 | 62.6 | inhibition at 10 µg/mL (Bacillus subtilis [16]): 45.6%; inhibition at 3 µg/mL (Bacillus subtilis [17]): 24.1%; inhibition at 30 µg/mL [18]: -0.48%; inhibition at 10 µg/mL [19]: 15.7%; inhibition at 3 µg/mL [20]: 14.8%
NC[C@H]1CN(c2ccc(N3CC4(COC4)C3)c(F)c2)C(=O)O1 | > 100 | > 100 | 0.84 to 0.843 (≈ 2.73 to 2.74 µM) | 3.38 (≈ 11 µM) | 0.57 (≈ 1.85 µM) | 4.05 (≈ 13.2 µM) | > 100 | > 100 | 3.46 (≈ 11.3 µM) | 11.3 (≈ 36.9 µM) | 99.2 | 96.8 | 88 | 56.9 | 53.7 | 49.2 | 98.9 | 94.3 | 86.5 | 48.8 | IC50 [21]: 2.8 µg/mL (≈ 9.11 µM); MIC [21]: 18.3 µg/mL (≈ 59.4 µM); inhibition at 10 µg/mL (Bacillus subtilis [16]): 43.3%; inhibition at 3 µg/mL (Bacillus subtilis [17]): 36.4%; inhibition at 30 µg/mL [18]: 90.9%; inhibition at 10 µg/mL [19]: 75.2%; inhibition at 3 µg/mL [20]: 15.2%
OC1(CNc2ccc(N3CCOCC3)c(F)c2)CCN(Cc2ccccc2)C1 (configuration not stated) | > 100 | > 100 | > 100 | > 100 | > 100 | > 100 | > 100 | > 100 | > 100 | > 100 | 53.9 | 49.6 | 45 | 63.7 | 37.1 | 14.4 | 53.2 | 48.9 | 44.3 | 52.2 | inhibition at 10 µg/mL (Bacillus subtilis [16]): 47.1%; inhibition at 3 µg/mL (Bacillus subtilis [17]): 44.7%; inhibition at 30 µg/mL [18]: 5.62%; inhibition at 10 µg/mL [19]: 6.11%; inhibition at 3 µg/mL [20]: 8%
O=C1OC2(CCN(Cc3ccccc3)C2)CN1c1ccc(N2CCOCC2)c(F)c1 (configuration not stated) | > 100 | > 100 | > 100 | > 100 | > 100 | > 100 | > 100 | > 100 | > 100 | > 100 | 23.9 | 23.7 | 31.2 | 50.1 | 32.7 | 35.9 | 23.1 | 22.9 | 30.5 | 14.7 | inhibition at 10 µg/mL (Bacillus subtilis [16]): 17.4%; inhibition at 3 µg/mL (Bacillus subtilis [17]): 24.5%; inhibition at 30 µg/mL [18]: 20.8%; inhibition at 10 µg/mL [19]: 7.06%; inhibition at 3 µg/mL [20]: 18.1%
CC(=O)N1CCC2(C1)CN(c1ccc(N3CCOCC3)c(F)c1)C(=O)O2 (configuration not stated) | > 100 | > 100 | > 100 | > 100 | > 100 | > 100 | > 100 | > 100 | > 100 | > 100 | 46 | 42 | 36.2 | 56.2 | 48.4 | 42.8 | 53.6 | 50.2 | 45.2 | 42.2 | inhibition at 10 µg/mL (Bacillus subtilis [16]): 32.2%; inhibition at 3 µg/mL (Bacillus subtilis [17]): 23.9%; inhibition at 30 µg/mL [18]: 12%; inhibition at 10 µg/mL [19]: -8.05%; inhibition at 3 µg/mL [20]: 19.7%
O=C(NC[C@H]1CN(c2ccc(N3CC4(COC4)C3)c(F)c2)C(=O)O1)Nc1ccc(Cl)cc1 | > 100 | > 100 | > 100 | > 100 | > 100 | > 100 | > 100 | > 100 | > 100 | > 100 | 59.1 | 31.9 | 7.39 | 62 | 33.1 | 12.4 | 62.1 | 57.3 | 47.4 | 65 | inhibition at 10 µg/mL (Bacillus subtilis [16]): 63.6%; inhibition at 3 µg/mL (Bacillus subtilis [17]): 59.6%; inhibition at 30 µg/mL [18]: 30.2%; inhibition at 10 µg/mL [19]: 25.6%; inhibition at 3 µg/mL [20]: 6.78%
